As a reminder, the pIC50 is −log10 of the IC50, conventionally taken in molar units.

Experimental findings from the Kinase Knowledgebase extract (Sharma et al. 2016) are described below.

pIC50: −log10 of the molar value.

In this assay the target is MAPK14 (human) (UniProt Q16539). Briefly: Inhibition of MAPK14 Kinase Activity.
Chain of MAPK14 (human) (Q16539 whole entry, looked up): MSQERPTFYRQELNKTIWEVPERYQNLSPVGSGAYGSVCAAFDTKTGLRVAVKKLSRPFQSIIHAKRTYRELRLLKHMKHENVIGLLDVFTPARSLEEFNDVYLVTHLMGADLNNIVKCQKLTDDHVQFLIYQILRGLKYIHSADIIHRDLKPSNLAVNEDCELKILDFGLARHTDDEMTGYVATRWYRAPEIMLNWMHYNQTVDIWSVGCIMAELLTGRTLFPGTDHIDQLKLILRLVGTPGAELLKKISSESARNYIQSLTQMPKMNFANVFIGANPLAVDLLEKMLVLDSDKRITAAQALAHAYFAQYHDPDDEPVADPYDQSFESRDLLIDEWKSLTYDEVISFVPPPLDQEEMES
Consider `CC(C)Cn1ncc2cc(C(=O)c3ccc(Cl)cc3Cl)ccc21`, for which the pIC50 is above 6.30.
Consider `COC(=O)C(CCN)NC(=O)c1cc2c(cnn2CC(F)(F)F)cc1Oc1ccc(F)cc1` (stereo not drawn), for which the pIC50 was above 6.30.
Under `CC(C)Cn1ncc2cc(C(=O)c3ccc(F)cc3Cl)ccc21` stands above 6.30; under `CCON=C(c1ccc2c(cnn2CC(C)C)c1)c1ccc(F)cc1F`, above 6.30.
In turn, `COC(=O)C(CCN)NC(=O)c1cc2c(cnn2CC(C)C)cc1Oc1ccc(F)cc1` (stereo not drawn) showed a pIC50 above 6.30.
With `CC(C)Cn1ncc2cc(C(=O)c3ccc(Cl)cc3F)ccc21` the figure was above 6.30.
`CON=C(c1ccc(F)cc1)c1ccc2c(cnn2CC(C)C)c1`: the pIC50 is above 6.30.
With `CON=C(c1ccc2c(cnn2CC(F)(F)F)c1)c1ccc(F)cc1F`, the pIC50 is above 6.30.
With `ON=C(c1ccc2c(cnn2CC(F)(F)F)c1)c1ccc(F)cc1F`, the pIC50 is above 6.30.
The molecule `O=C(c1ccc2c(cnn2CC(F)(F)F)c1)c1ccc(F)cc1F` gave a pIC50 above 6.30.
As to `CC(C)Cn1ncc2cc(C(=NO)c3ccc(F)cc3F)ccc21`, the pIC50 is above 6.30.
Under `Cc1ccccc1Nc1ccc2c(cnn2CC(C)C)c1` stands above 6.30.
Take `CC(C)Cn1ncc2cc(Oc3ccc(F)cc3)c(C(=O)NCCN(C)C)cc21`: the negative-log IC50 (pIC50) is above 6.30.
Under `CS(=O)(=O)n1ncc2cc(C(=NO)c3ccc(F)cc3F)ccc21` stands above 6.30.
In turn, `CC(C)Cn1ncc2cc(Oc3ccc(F)cc3)c(C(N)=O)cc21` showed a pIC50 above 6.30.
`CC(C)Cn1ncc2cc(C(O)c3ccc(F)cc3)ccc21` (stereo not drawn) had a pIC50 above 6.30.
Consider `CC(C)Cn1ncc2cc(C(=NOCc3ccccc3)c3ccc(F)cc3F)ccc21`, for which the pIC50 is above 6.30.
As to `CC(C)Cn1ncc2cc(C(O)c3ccc(F)cc3F)ccc21` (stereo not drawn), the pIC50 is above 6.30.
For the molecule `CC(C)Cn1ncc2cc(Nc3ccc(F)cc3)ccc21`, the pIC50 was above 6.30.
As to `C=CCn1ncc2cc(C(=O)c3ccc(F)cc3F)ccc21`, the pIC50 is above 6.30.
`CC(C)Cn1ncc2cc(C(=O)c3ccc(F)cc3)ccc21` had a negative-log IC50 (pIC50) above 6.30.
The molecule `Cc1ccccc1C(O)c1ccc2c(cnn2CC(C)C)c1` (stereo not drawn) showed a negative-log IC50 (pIC50) above 6.30.
Under `CCON=C(c1ccc(F)cc1)c1ccc2c(cnn2CC(C)C)c1` stands above 6.30.
`C=CCn1ncc2cc(C(=NO)c3ccc(F)cc3F)ccc21` had a pIC50 above 6.30.
Take `CON=C(c1ccc2c(cnn2S(C)(=O)=O)c1)c1ccc(F)cc1F`: the negative-log IC50 (pIC50) was above 6.30.
`CC(C)Cn1ncc2cc(C(O)c3ccc(F)cc3Cl)ccc21` (stereo not drawn) had a pIC50 above 6.30.
Under `CC(C)Cn1ncc2cc(C(=NO)c3ccc(F)cc3)ccc21` stands above 6.30; under `CC(C)Cn1ncc2cc(C(O)c3ccc(Cl)cc3Cl)ccc21` (stereo not drawn), above 6.30.
Take `CC(C)Cn1ncc2cc(C(O)c3ccc(Cl)cc3F)ccc21` (stereo not drawn): the pIC50 is above 6.30.
`CC(C)Cn1ncc2cc(C(=O)c3ccc(F)cc3F)ccc21` showed a pIC50 above 6.30.
Molecule `CN(C)CCNC(=O)c1cc2c(cnn2CC(F)(F)F)cc1Oc1ccc(F)cc1` had a pIC50 above 6.30.
Under `Cc1ccccc1C(=O)c1ccc2c(cnn2CC(C)C)c1` stands above 6.30; under `CC(C)Cn1ncc2cc(Nc3ccc(F)cc3F)ccc21`, above 6.30.
